This is an account of results in patent US12172007B2, “Combination therapy of electric fields and an additional treatment for cancer and imaging” (University of Cincinnati, priority 2019, dated 2024).

Data set [1] can be described thus: Relaxivity of contrast agent at 7 T. The format is physicochemical. From the text: The use of a paramagnetic gadolinium chelate-loaded SapC-DOPS (Gd-DTPA-BSA/SapC-DOPS) vesicles as a targeted contrast agent for imaging glioblastoma multiforme tumors are also useful in the present invention. Gd-DTPA-BSA/SapC-DOPS vesicles and Gd-DTPA display a similar relaxivity of 3.32 and 2.80 (s·mM)−1, respectively, at 7 T. According to the in vivo experiments, the R1 values of the tumor before injection of Gd-DTPA-BSA/SapC-DOPS vesicles, sham injected brain, and contralateral normal brain were 0.4676±0.010 s−1, 0.5216±0.034 s−1, and 0.5596±0.003 s−1, respectively. […] At 24 h postinjection, the tumor R1 remained elevated (7.9±1.5%, P<0.05) compared with the normal and sham brains, but it was statistically similar to the controls (4.7±2.0%, p>0.05). […] At 4 h, 10 h, and 20 h, the increase in T1 relaxation time is higher in the sham normal brain compared with sham tumor. By 24 h postinjection, the T1-weighted signal is similar in both tissues.

Data set [2] concerns non-small cell lung cancer (NSCLC). The note with it: cited from earlier work.
Data set [3] has as its system HER2-negative breast cancer. The note with it: phase I, cited from earlier work.

In data set [1], `O=C([O-])CN(CCN(CC(=O)[O-])CC(=O)O)CCN(CC(=O)[O-])CC(=O)O.[Gd+3]` [Gd-DTPA] returned a relaxivity of 2.80 s/mM.
“Bavituximab: chimeric monoclonal antibody that binds to PS”: the “overall survival, Bavituximab + docetaxel versus docetaxel alone” value in data set [2] (advanced, previously treated NSCLC, phase III) was “no significant difference”. Besides, the “overall survival versus placebo-treated patients” value in data set [2] (patients pre-treated with immune checkpoint inhibitors) is on record as “increased overall survival”. Also, the overall response rate in data set [3] (with paclitaxel as adjuvant therapy) is listed as 85%. For the same compound, the tolerability entry in data set [3] (with paclitaxel) was “well tolerated”.
